# Columns and labels:
# Format in all cases: cell-based, human
# [1] = tested on: SF188 cells stably expressing Bcl-xL; test: Akt/PI3K inhibitor treatment, media metabolite analysis (glucose, lactate, glutamine, ammonia); details: 8 hours, medium analysed
# Protocol: SF188 cells stably expressing Bcl-xL were treated with AktiVIII at doses ranging from 0-20 μM. Medium was collected and analyzed for glucose, lactate, glutamine, and ammonia. The rates shown were calculated from the difference in metabolite concentration between the medium at the time point shown and fresh medium. The data points presented are the mean±SD of triplicate samples.
# SF188 cells stably expressing Bcl-xL were plated at a density of 4×10^5 cells in E-well plate format, and incubated in DMEM with 10% FCS for 36 hours prior to treatment with AKT inhibitor VIII (Calbiochem) at 0, 0.1, 2, 5, and 10 μM concentrations in triplicate. After 8 hours, medium samples were collected for metabolite analysis, and viable cells were counted using trypan blue exclusion.
# Media glucose, glutamine, lactate, and ammonia concentrations were analyzed using the Nova Biomedical Flex Analyzer (Waltham, Mass.).
# shCTRL SF188 cells = test: AOA treatment of SF188 cells transduced with control shRNA, viability by trypan blue dye exclusion; details: P<0.01
# Protocol: (§1) (A) Myc-suppressed SF188 cells are resistant to glutamine starvation. shMYC and shCTRL SF188 cells, described in FIG. 3B, were allowed to plate in the presence of glutamine and then cultured in the absence of glutamine. Cell viability was determined at the time points shown by trypan blue dye exclusion. The data points shown represent the mean±SD of triplicate samples. (B) Myc-suppressed SF188 cells are resistant to an inhibitor of glutaminolysis. shMYC and shCTRL SF188 cells, described in FIG. 3B, were allowed to plate in the presence of glutamine and then were treated with 500 μM aminooxyacetate (AOA). Cell viability was determined at the time points shown by trypan blue dye exclusion. AOA-treated shCTRL cells were also treated with 7 mM dimethyl α-ketoglutarate (AOA+α-ketoglutarate). The data points shown represent the mean±SD of triplicate samples.
# (§2) Lentivirus was packaged in 293T cells co-transfected with pLKO.1-puro c-Myc or Luciferase-control shRNA plasmid (Sigma) in addition to the pVSV-G and pCMVdelta8.2 helper plasmids using lipofectamine 2000 (Sigma). […]
# (§3) SF188 cells were treated with AOA (Sigma) at doses ranging from 500 nM-500 μM and viability was assessed 24 h post-treatment. […] After allowing to plate overnight, cells were treated with 500 μM for 24 h, and then viability was assessed using trypan blue dye exclusion.
# SF188 cells [2] = test: AOA dose-finding, viability of SF188 cells; details: doses 500 nM-500 μM, viability 24 h post-treatment
# Protocol: SF188 cells (UC Brain Tumor Research Center, SF, CA) and SV40-immortalized MEF stably transfected with MycER (a gift from Drs. A T Tikhonenko and R. A. Amaravadi of University of Pennsylvania, Philadelphia, Pa.) were cultured in DMEM (Invitrogen), 10% FBS (Gemini Biosystems), 100 units/ml Penicillin, 100 ug/ml Streptomycin, 25 mM glucose, and 6 mM L-glutamine at 37° C. in a 5% CO2 incubator. To avoid depleting […], all experiments were carried out under subconfluent conditions. For glutamine starvation experiments, DMEM without glutamine (Invitrogen) was supplemented with 10% dialyzed FBS (Gemini Biosystems). For metabolic tracing experiments, DMEM without glutamine and with 10% dialyzed FBS was supplemented with either L-glutamine that was unenriched or with L-[U-^13C5]glutamine (Isotec), [U-^14C5]glutamine (GE Amersham), and [γ-^15N]glutamine (Cambridge Isotope Laboratories). DMEM without glucose (Sigma) was supplemented with [U-^14C6]glucose (Sigma). To activate MycER, cells were incubated with 200 nM 4-hydroxytamoxifen for 24 hours.
# as §3, with “post-treatment. Moreadith R W & Lehninger A L (1984) J. Biol. Chem. 259(10):6215-6221.” for “post-treatment.”
# shMYC SF188 cells = test: AOA treatment of SF188 cells transduced with MYC-shRNA, viability by trypan blue dye exclusion; details: 500 μM AOA, 24 h, P<0.01
# Protocol: as §1, §2, §3
# SF188 cells [3] = test: Glutamine starvation of SF188 cells with alpha-ketoglutarate replacement, viability by trypan blue dye exclusion; details: glutamine replaced with 7 mM dimethyl α-ketoglutarate, 25 mM glucose in medium
# Protocol: FIG. 1 concerns glutamine catabolism in the human glioma line SF188. (A) Protein synthesis is a minor fate of glutamine carbon. SF188 cells were cultured in medium supplemented with 0.01% [^14C-U5]glutamine relative to unenriched glutamine for 4 h. [^14C-U5]glutamine in SSA precipitated protein (striped bar) and total glutamine consumed from the medium (grey bar) are presented as the mean±standard deviation (SD) of four independent experiments. (B) The requirement for glutamine can be satisfied by alpha-ketoglutarate. SF188 cells were allowed to plate in complete medium and then cultured in either glutamine-depleted medium (−glutamine), complete medium (+glutamine), or glutamine-depleted medium supplemented with 7 mM dimethyl α-ketoglutarate (−glutamine +α-ketoglutarate). Cell viability was determined at the time points shown by trypan blue dye exclusion. The data presented are the mean±SD of triplicate samples. Representative data from one of three independent experiments are shown.
# SF188 cells (UC Brain Tumor Research Center, SF, CA) and SV40-immortalized MEF stably transfected with MycER (a gift from Drs. A T Tikhonenko and R. A. Amaravadi of University of Pennsylvania, Philadelphia, Pa.) were cultured in DMEM (Invitrogen), 10% FBS (Gemini Biosystems), 100 units/ml Penicillin, 100 ug/ml Streptomycin, 25 mM glucose, and 6 mM L-glutamine at 37° C. in a 5% CO2 incubator. […]
compound,measurement,setting,value
O=c1[nH]c2ccccc2n1C1CCN(Cc2ccc(-c3nc4cc5[nH]cnc5cc4nc3-c3ccccc3)cc2)CC1 [AKT inhibitor VIII],ammonia production,[1],neither glutamine metabolism nor ammonia production was inhibited
same,glucose metabolism (consumption),[1],suppressed glucose metabolism and lactate production in a dose-dependent fashion
same,glutamine metabolism (consumption),[1],neither glutamine metabolism nor ammonia production was inhibited
same,lactate production,[1],suppressed glucose metabolism and lactate production in a dose-dependent fashion
"NOCC(=O)O [AOA, aminooxyacetate]",cell viability / death of cells transduced with control shRNA,"shCTRL SF188 cells; 500 μM AOA, 24 h, trypan blue dye exclusion",selectively induced the death
same,lowest dose that killed a significant fraction of the cells,SF188 cells [2],500 µM
same,cell viability of cells transduced with MYC-shRNA,shMYC SF188 cells,without affecting the viability
COC(=O)CCC(=O)C(=O)OC [dimethyl α-ketoglutarate],cell death in glutamine-deficient medium,SF188 cells [3],suppressed the cell death
same,reversal of AOA-induced toxicity (death),shCTRL SF188 cells; 7 mM dimethyl α-ketoglutarate added to AOA-treated SF188 parental and control transduced cells,completely suppressed the death

# Source: patent US20110301153A1, “METHODS OF TREATING CANCER” (The Trustees of the University of Pennsylvania, priority 2008, published 2011)
